We go through 16 molecules from patent US10604512B2, “3-(1H-indol-2-yl)-1H-indazoles and therapeutic uses thereof” (Samumed, LLC, priority 2015, dated 2020).

Type in all cases: cell-based
One experiment concerns IL-6. The experiment can be described thus: Inhibition of IL-6 in LPS-stimulated THP-1 human monocyte cells (HTRF). Conditions: for EC50: IL-6 inhibition, LPS-stimulated THP-1 cells, HTRF; for inhibition at 10 µM: THP-1, printed beside >10 μM EC50, top concentration 10 μM, meaning not given, read-out: percentage in parentheses after EC50 >10. In a few lines:
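THP-1 cells serum-reduced (1% FBS, 24 h), then 5000 cells/well preincubated 2 h with compound (10-point 1:3 series from 10 μM, 0.1% DMSO) before 500 ng/mL LPS for 22 h at 37 °C. Secreted IL-6 quantified by HTRF 665/620 ratio; DMSO-normalised duplicates fitted to four-parameter EC50; above 10 μM, % inhibition at 10 μM given.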
On the technique in general: Time-resolved FRET reads energy transfer from a long-lived donor to a nearby acceptor.

The subject of the next experiment is SW480 colon cancer cells. The experiment can be described thus: Cell viability assay (CellTiter-Blue) in SW480 colon cancer cells. Conditions: Homo sapiens, 96 h, four days; for inhibition at 10 µM: given where EC50 >10 μM, read-out: percent inhibition at 10 μM; for EC50: CellTiter-Blue. The method in brief:
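Resazurin reduction (Ex 560/Em 590 nm, ~3 h reagent incubation) served as the viability read-out after SW480 cells were treated for four days at 37 °C. Doses ran from 10 μM down to 0.0045 μM in eight 1:3 steps. Curves fitted non-linearly for EC50, else % inhibition at 10 μM reported.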
Background: The colour change of resazurin is a common sign of viable cells or microbes.

Experiment [1] concerns primary human mesenchymal stem cells (hMSCs). The experiment can be described thus: Induction of chondrogenesis in primary human mesenchymal stem cells (nodule imaging, Rhodamine B / Nile Red). As to conditions: for EC50: concentration required to induce 50% levels of chondrogenesis vs TGF-β3 positive control, read-out: Conc (nM) of 50% TGF-β3 activity; for Emax: maximum chondrogenesis activity relative to TGF-β3 (10 ng/mL) positive control, read-out: Max. Activity as % TGF-β3 activity. As for the experimental part:
Representative compounds were screened using primary human mesenchymal stem cells (hMSCs) to determine their ability to induce chondrogenesis (process by which cartilage is developed).
Primary human mesenchymal stem cells (hMSCs) were purchased from Lonza (Walkersville, Md.) and expanded in Mesenchymal Stem Cell Growth Media (Lonza). Cells between passage 3 and 6 were used for the experiments.
Each compound was dissolved in DMSO as a 10 mM stock and used to prepare compound source plates. For the 96 well assay, serial dilution (1:3, 6-point dose-response curves from 2700 nM to 10 nM) and compound transfer was performed using the ECHO 550 (Labcyte, Sunnyvale, Calif.) into 96-well clear bottom assay plates (Greiner Bio-One) with appropriate DMSO backfill for a final DMSO concentration of 0.03%. hMSCs were plated at 20,000 cells/well in 250 μL/well Incomplete Chondrogenic Induction Medium (Lonza; DMEM, dexamethasone, ascorbate, insulin-transferrin-selenium [ITS supplement], gentamycin-amphotericin [GA-1000], sodium pyruvate, proline and L-glutamine). TGF-β3 (10 ng/mL) was used as a positive control for differentiation while negative control wells were treated with 75 nL DMSO for normalization and calculating EC50 values. For the 384 well assay, serial dilution (1:3, 8-point dose-response curves from 5000 nM to 2.2 nM) and compound transfer was performed using the ECHO 550 (Labcyte, Sunnyvale, Calif.) into 384-well clear bottom assay plates (Greiner Bio-One) with appropriate DMSO backfill for a final DMSO concentration of 0.03%. hMSCs were plated at 8,000 cells/well in 80 μL/well Incomplete Chondrogenic Induction Medium (Lonza; DMEM, dexamethasone, ascorbate, insulin-transferrin-selenium [ITS supplement], gentamycin-amphotericin [GA-1000], sodium pyruvate, proline and L-glutamine). TGF-β3 (10 ng/mL) was used as a positive control for differentiation while negative control wells were treated with 25 nL DMSO for normalization and calculating EC50 values. Cells were incubated at 37° C. and 5% CO2 for 6 days. To image chondrogenic nodules, the cells were fixed using 4% formaldehyde (Electron Microscopy Sciences), and stained with 2 μg/mL Rhodamine B (Sigma-Aldrich) and 20 μM Nile Red (Sigma-Aldrich) [Johnson K., et. al, A Stem CellBased Approach to Cartilage Repair, Science, (2012), 336(6082), 717-721]. The nodules imaged (25 images per well for 96 well plates and 9 images per well for 384 well plates at 10× magnification) by excitation at 531 nm and emission at 625 nm and quantified using the CellInsight CX5 (Thermo Scientific). Area of nodules in each well was normalized to the average of 3 DMSO treated wells on the same plate using Excel (Microsoft Inc.). The normalized averages (fold change over DMSO) of 2 or 3 replicate wells for each compound concentration were calculated. Due to solubility limitations of some of the compounds, curve fitting was incomplete leading to inaccurate EC50 determinations.
Using TGF-β3 as a positive control, the concentration of representative compounds required to induce 50% levels of chondrogenesis is reported. In addition, the maximum activity of each compound and the respective dose that each compound reached maximum chondrogenesis activity is reported.

For `Fc1ccc(-c2cccc3[nH]c(-c4n[nH]c5ccc(-c6cncc(CN7CCCC7)c6)cc45)cc23)cc1` [Compound 42, 3-(4-(4-Fluorophenyl)-1H-indol-2-yl)-5-(5-(pyrrolidin-1-ylmethyl)pyridin-3-yl)-1H-indazole], in the experiment on IL-6, the EC50 was over 10 µM and the inhibition at 10 µM stood at 47.8%. In the experiment on SW480 colon cancer cells, the inhibition at 10 µM stood at 42.4% and the EC50 is over 10 µM. In addition, in experiment [1], the EC50 is 30 nM and the Emax was determined as 197%.

For the molecule `Nc1cncc(-c2ccc3[nH]nc(-c4cc5c(-c6ccccc6F)cccc5[nH]4)c3c2)c1` [Compound 59, 5-(3-(4-(2-Fluorophenyl)-1H-indol-2-yl)-1H-indazol-5-yl)pyridin-3-amine], the EC50 with IL-6 was determined as 3.46 µM; with SW480 colon cancer cells it was 1.29 µM; in experiment [1], 10 nM. Moreover, in experiment [1], the Emax worked out at 197%.

On to `CCC(=O)Nc1cncc(-c2ccc3[nH]nc(-c4cc5c(-c6cccnc6)cccc5[nH]4)c3c2)c1` [Compound 85, N-(5-(3-(4-(Pyridin-3-yl)-1H-indol-2-yl)-1H-indazol-5-yl)pyridin-3-yl) propionamide], for which the EC50 with IL-6 was 0.204 µM; with SW480 colon cancer cells it was 0.479 µM; in experiment [1], 10 nM. Further, the Emax in experiment [1] is 197%.

For `c1cncc(-c2ccc3[nH]nc(-c4cc5c(-c6cccnc6)cccc5[nH]4)c3c2)c1` [Compound 88, 5-(Pyridin-3-yl)-3-(4-(pyridin-3-yl)-1H-indol-2-yl)-1H-indazole], the values for the EC50 (in the experiment with IL-6; with SW480 colon cancer cells; in experiment [1]) were 0.023 µM, over 10 µM and 10 nM, respectively. Besides, the inhibition at 10 µM with SW480 colon cancer cells amounted to 21.9%. Also, the Emax in experiment [1] was found to be 183%.

In the case of `CC(C)C(=O)Nc1cncc(-c2ccc3[nH]nc(-c4cc5c(-c6cccnc6)cccc5[nH]4)c3c2)c1` [Compound 93, N-(5-(3-(4-(Pyridin-3-yl)-1H-indol-2-yl)-1H-indazol-5-yl)pyridin-3-yl) isobutyramide], the EC50 turned out to be 0.034 µM in the experiment with IL-6, 2.3 µM with SW480 colon cancer cells and 30 nM in experiment [1]. The Emax in experiment [1] worked out at 199%.

With `c1cncc(-c2cccc3[nH]c(-c4n[nH]c5ccc(-c6cncc(CN7CCCCC7)c6)cc45)cc23)c1` [Compound 99, 5-(5-(Piperidin-1-ylmethyl)pyridin-3-yl)-3-(4-(pyridin-3-yl)-1H-indol-2-yl)-1H-indazole], the EC50 in the experiment with IL-6 is over 10 µM; in the experiment with SW480 colon cancer cells, over 10 µM; in experiment [1] it was 10 nM. In addition, the inhibition at 10 µM was 50.5% with IL-6 and 6.5% with SW480 colon cancer cells. Further, the Emax in experiment [1] amounted to 212%.

Take `c1cncc(-c2cccc3[nH]c(-c4n[nH]c5ccc(-c6cncnc6)cc45)cc23)c1` [Compound 111, 3-(4-(Pyridin-3-yl)-1H-indol-2-yl)-5-(pyrimidin-5-yl)-1H-indazole]: the EC50 in the experiment on IL-6 turned out to be 3.06 µM; with SW480 colon cancer cells, 9.67 µM; in experiment [1], 10 nM. Moreover, the Emax in experiment [1] was 202%.

With `Cc1ccncc1-c1ccc2[nH]nc(-c3cc4c(-c5ccncc5)cccc4[nH]3)c2c1` [Compound 117, 5-(4-Methylpyridin-3-yl)-3-(4-(pyridin-4-yl)-1H-indol-2-yl)-1H-indazole], the figures for the EC50 (in the experiment on IL-6; with SW480 colon cancer cells; in experiment [1]) were over 10 µM, over 10 µM and 10 nM, respectively. Besides, the inhibition at 10 µM in the experiment with IL-6 was determined as 38.6%; in the experiment with SW480 colon cancer cells, 20.9%. Also, the Emax in experiment [1] was found to be 190%.

Regarding `CCNCc1cncc(-c2ccc3[nH]nc(-c4cc5c(-c6ccncc6)cccc5[nH]4)c3c2)c1` [Compound 118, N-((5-(3-(4-(Pyridin-4-yl)-1H-indol-2-yl)-1H-indazol-5-yl)pyridin-3-yl)methyl)ethanamine], the EC50 in the experiment on IL-6 came to 0.137 µM; in the experiment on SW480 colon cancer cells, 0.528 µM; in experiment [1], 30 nM. Besides, in experiment [1], the Emax worked out at 199%.

`CN(C)Cc1cncc(-c2ccc3[nH]nc(-c4cc5c(-c6ccncc6)cccc5[nH]4)c3c2)c1` [Compound 125, N,N-dimethyl-1-(5-(3-(4-(Pyridin-4-yl)-1H-indol-2-yl)-1H-indazol-5-yl)pyridin-3-yl)methanamine]: the EC50 with IL-6 stood at 0.15 µM; with SW480 colon cancer cells, 0.412 µM; in experiment [1], 30 nM. In experiment [1], the Emax is 191%.

For the molecule `O=C(Nc1cncc(-c2ccc3[nH]nc(-c4cc5c(-c6ccncc6)cccc5[nH]4)c3c2)c1)C1CC1` [Compound 132, N-(5-(3-(4-(Pyridin-4-yl)-1H-indol-2-yl)-1H-indazol-5-yl)pyridin-3-yl) cyclopropanecarboxamide], the EC50 in the experiment with IL-6 came out at 0.109 µM; with SW480 colon cancer cells, 0.462 µM; in experiment [1], 10 nM. The Emax in experiment [1] stood at 219%.

As to `Nc1cncc(-c2ccc3[nH]nc(-c4cc5c(-c6ccccn6)cccc5[nH]4)c3c2)c1` [Compound 143, 5-(3-(4-(Pyridin-2-yl)-1H-indol-2-yl)-1H-indazol-5-yl)pyridin-3-amine], the EC50 in the experiment with IL-6 amounted to 0.29 µM; in the experiment on SW480 colon cancer cells it was 0.748 µM; in experiment [1], 10 nM. For the same molecule, the Emax in experiment [1] was found to be 224%.

Regarding `c1ccc(-c2cccc3[nH]c(-c4n[nH]c5ccc(-c6cncc(CN7CCCC7)c6)cc45)cc23)nc1` [Compound 154, 3-(4-(Pyridin-2-yl)-1H-indol-2-yl)-5-(5-(pyrrolidin-1-ylmethyl)pyridin-3-yl)-1H-indazole], the EC50 in the experiment on IL-6 was determined as 0.75 µM; in the experiment on SW480 colon cancer cells, 2.79 µM; in experiment [1] it was 10 nM. For the same molecule, the Emax in experiment [1] was found to be 180%.

Turning to `c1ccc(-c2cccc3[nH]c(-c4n[nH]c5ccc(-c6cncnc6)cc45)cc23)nc1` [Compound 167, 3-(4-(Pyridin-2-yl)-1H-indol-2-yl)-5-(pyrimidin-5-yl)-1H-indazole], the EC50 in the experiment with IL-6 worked out at 0.979 µM. Moreover, in the experiment with SW480 colon cancer cells, the inhibition at 10 µM came out at 10.9% and the EC50 is over 10 µM. Further, in experiment [1], the EC50 is 10 nM and the Emax was 203%.

As for `CCC(=O)Nc1cncc(-c2ccc3[nH]nc(-c4cc5c(N6CCCCC6)cccc5[nH]4)c3c2)c1` [Compound 169, N-(5-(3-(4-(Piperidin-1-yl)-1H-indol-2-yl)-1H-indazol-5-yl)pyridin-3-yl) propionamide], in the experiment with IL-6, the EC50 was over 10 µM and the inhibition at 10 µM was 41.7%. In the experiment with SW480 colon cancer cells, the inhibition at 10 µM was found to be 10.4% and the EC50 is over 10 µM. In addition, in experiment [1], the EC50 amounted to 30 nM and the Emax is 171%.

Take `c1cc(-c2ccoc2)c2cc(-c3n[nH]c4ccc(-c5cncc(OC6CCNCC6)c5)cc34)[nH]c2c1` [Compound 716, 3-(4-(Furan-3-yl)-1H-indol-2-yl)-5-(5-(piperidin-4-yloxy)pyridin-3-yl)-1H-indazole]: in the experiment with IL-6, the EC50 was over 10 µM and the inhibition at 10 µM turned out to be 25.5%. In addition, the EC50 with SW480 colon cancer cells came to 2.18 µM.
